Target: ATP-binding cassette sub-family C member 2 (Rattus norvegicus, UniProt Q63120)
Assay: TP_TRANSPORTER: decrease in biliary excretion in isolated perfused liver from TR- rat
Assay type: functional

ATP-binding cassette sub-family C member 2, sequence (Q63120 whole entry, the tested form may be a part): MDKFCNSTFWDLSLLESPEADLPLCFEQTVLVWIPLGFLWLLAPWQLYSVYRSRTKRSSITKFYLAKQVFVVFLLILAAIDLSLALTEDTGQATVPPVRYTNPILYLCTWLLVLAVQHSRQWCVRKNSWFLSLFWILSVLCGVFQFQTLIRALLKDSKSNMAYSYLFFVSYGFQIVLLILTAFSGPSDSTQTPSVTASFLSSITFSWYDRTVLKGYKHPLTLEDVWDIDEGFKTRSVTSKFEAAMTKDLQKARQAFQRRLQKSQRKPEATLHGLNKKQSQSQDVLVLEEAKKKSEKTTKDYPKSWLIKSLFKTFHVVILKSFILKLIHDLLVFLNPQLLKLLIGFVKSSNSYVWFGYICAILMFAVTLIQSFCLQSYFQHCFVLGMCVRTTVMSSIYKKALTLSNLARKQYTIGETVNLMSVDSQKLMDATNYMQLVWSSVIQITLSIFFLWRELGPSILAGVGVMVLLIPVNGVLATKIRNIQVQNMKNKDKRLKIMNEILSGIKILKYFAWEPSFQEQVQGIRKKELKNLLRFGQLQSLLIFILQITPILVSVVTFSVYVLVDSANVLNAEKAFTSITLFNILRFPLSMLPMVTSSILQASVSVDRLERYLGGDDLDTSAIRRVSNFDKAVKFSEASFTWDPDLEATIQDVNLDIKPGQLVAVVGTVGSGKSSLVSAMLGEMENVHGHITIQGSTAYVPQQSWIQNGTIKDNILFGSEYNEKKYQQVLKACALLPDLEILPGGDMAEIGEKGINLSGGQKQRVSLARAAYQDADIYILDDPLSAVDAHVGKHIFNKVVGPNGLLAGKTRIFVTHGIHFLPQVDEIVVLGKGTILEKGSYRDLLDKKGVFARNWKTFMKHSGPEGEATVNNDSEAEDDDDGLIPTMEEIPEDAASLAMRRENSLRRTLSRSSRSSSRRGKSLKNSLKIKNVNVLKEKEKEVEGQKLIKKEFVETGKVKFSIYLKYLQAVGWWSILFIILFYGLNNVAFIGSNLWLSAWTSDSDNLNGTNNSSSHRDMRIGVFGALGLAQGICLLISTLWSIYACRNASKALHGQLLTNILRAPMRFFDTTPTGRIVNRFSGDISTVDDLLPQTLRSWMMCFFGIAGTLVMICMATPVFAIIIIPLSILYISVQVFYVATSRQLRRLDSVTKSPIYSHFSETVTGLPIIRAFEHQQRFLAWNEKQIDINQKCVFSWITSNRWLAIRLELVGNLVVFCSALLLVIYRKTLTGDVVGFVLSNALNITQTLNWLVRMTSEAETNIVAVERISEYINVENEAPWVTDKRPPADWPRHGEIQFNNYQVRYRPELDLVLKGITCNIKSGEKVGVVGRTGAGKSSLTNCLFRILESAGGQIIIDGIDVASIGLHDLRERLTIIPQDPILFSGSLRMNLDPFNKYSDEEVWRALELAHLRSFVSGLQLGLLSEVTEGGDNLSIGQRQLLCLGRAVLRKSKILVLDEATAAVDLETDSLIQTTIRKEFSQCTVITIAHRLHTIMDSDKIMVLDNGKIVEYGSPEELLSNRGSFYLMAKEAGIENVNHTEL

Row | Compound | Activity
1 | CC(=O)Nc1ccccc1.O=S(=O)(O)O | substrate [+]
2 | CC(=O)Nc1ccc(O[C@@H]2O[C@H](C(=O)O)[C@@H](O)[C@H](O)[C@H]2O)cc1 [ACETAMINOPHEN GLUCURONIDE] | substrate [+]
